# Test results from patent publication US20260262643A1, “HERBICIDAL BENZOXAZINES” (FMC CORPORATION, priority 2022, published 2026).
# Columns and labels:
# [1] = system: galium; test: Test A postemergence; type: in vivo, Galium aparine
# Outline: (§1)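 Loam/sand soil; pre-em directed soil spray at planting, post-em spray at 1–2 leaf (2–10 cm). Compound in non-phytotoxic solvent + surfactant. Greenhouse 10 d; visual injury vs untreated, 0 = no effect, 100 = complete control.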
# [2] = system: pigweed, palmer; test: Test A postemergence; type: in vivo, Amaranthus palmeri
# Outline: as §1
# [3] = system: wheat; test: Test A preemergence; type: in vivo, Triticum aestivum
# Outline: as §1
# [4] = system: soybean; test: Test A preemergence; type: in vivo, Glycine max
# Outline: as §1
# [5] = system: soybean; test: Test A postemergence; type: in vivo, Glycine max
# Outline: as §1
# [6] = system: goosegrass; test: Test A postemergence; type: in vivo, Eleusine indica
# Outline: as §1
# [7] = system: blackgrass; test: Test A postemergence; type: in vivo, Alopecurus myosuroides
# Outline: as §1
# [8] = system: ryegrass, Italian; test: Test A postemergence; type: in vivo, Lolium multiflorum
# Outline: as §1
# [9] = system: ducksalad; test: Test B flooded paddy test; type: in vivo, Heteranthera limosa; settings: 250 g ai/ha, Flood, 13 days, 0 to 100 scale (0 no effect, 100 complete control)
# Outline: (§2)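 Flooded to 3 cm at treatment time, 2-leaf plants got the test compound applied straight into the paddy water. They then stayed under constant flood in a greenhouse for 13 days. Ratings used a 0 to 100 visual scale.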
# [10] = system: corn; test: Test A preemergence; type: in vivo, Zea mays
# Outline: as §1
# [11] = system: barnyardgrass; test: Test B flooded paddy test; type: in vivo, Echinochloa crus-galli; settings: 250 g ai/ha, Flood, 13 days, 0 to 100 scale (0 no effect, 100 complete control)
# Outline: as §2
# [12] = system: corn; test: Test A postemergence; type: in vivo, Zea mays
# Outline: as §1
# [13] = system: oat, wild; test: Test A preemergence; type: in vivo, Avena fatua
# Outline: as §1
# [14] = system: oat, wild; test: Test A postemergence; type: in vivo, Avena fatua
# Outline: as §1
# [15] = system: kochia; test: Test A postemergence; type: in vivo, Bassia scoparia
# Outline: as §1
# [16] = system: horseweed; test: Test A postemergence; type: in vivo, Erigeron canadensis
# Outline: as §1
# [17] = system: wheat; test: Test A postemergence; type: in vivo, Triticum aestivum
# Outline: as §1
# [18] = system: rice; test: Test B flooded paddy test; type: in vivo, Oryza sativa; settings: 250 g ai/ha, Flood, 13 days, 0 to 100 scale (0 no effect, 100 complete control)
# Outline: as §2
# [19] = system: foxtail, giant; test: Test A preemergence; type: in vivo, Setaria faberi
# Outline: as §1
# [20] = system: foxtail, giant; test: Test A postemergence; type: in vivo, Setaria faberi
# Outline: as §1
# [21] = system: pigweed, palmer; test: Test A preemergence; type: in vivo, Amaranthus palmeri
# Outline: as §1
# [22] = system: ragweed; test: Test A postemergence; type: in vivo, Ambrosia artemisiifolia
# Outline: as §1
# [23] = system: kochia; test: Test A preemergence; type: in vivo, Bassia scoparia
# Outline: as §1
# [24] = system: blackgrass; test: Test A preemergence; type: in vivo, Alopecurus myosuroides
# Outline: as §1
# [25] = system: ryegrass, Italian; test: Test A preemergence; type: in vivo, Lolium multiflorum
# Outline: as §1
# [26] = system: goosegrass; test: Test A preemergence; type: in vivo, Eleusine indica
# Outline: as §1
# [27] = system: sedge, umbrella; test: Test B flooded paddy test; type: in vivo, Cyperus difformis; settings: 250 g ai/ha, Flood, 13 days, 0 to 100 scale (0 no effect, 100 complete control)
# Outline: as §2
# [28] = system: ragweed; test: Test A preemergence; type: in vivo, Ambrosia artemisiifolia
# Outline: as §1
# [29] = 125 g ai/ha, postemergence, 10 days, visual injury, 0 to 100 scale (0 no effect, 100 complete control)
# [30] = 500 g ai/ha, Postemergence, 0 to 100 scale
# [31] = 125 g ai/ha, visual injury after 10 days, 0 to 100 scale, 0 is no effect, 100 is complete control
# [32] = 500 g ai/ha, 0 to 100 scale (0 no effect, 100 complete control), 10 days
smiles,measurement,setting,value
Cc1ncn(-c2cccc(C(=O)N3C[C@H](C)Oc4c(C)cccc43)c2)n1 [Compound 51],"Plant response rating, Galium",[1]; [29],80
same,"Plant response rating, Galium",[1]; [30],100
same,"Plant response rating, Pigweed, Palmer",[2]; [29],20
same,"Plant response rating, Pigweed, Palmer",[2]; [30],50
same,"Plant response rating, Wheat",[3]; [31],20
same,"Plant response rating, Wheat",[3]; [32],60
same,"Plant response rating, Soybean",[4]; [31],90
same,"Plant response rating, Soybean",[4]; [32],100
same,"Plant response rating, Soybean",[5]; [29],100
same,"Plant response rating, Soybean",[5]; [30],100
same,"Plant response rating, Goosegrass",[6]; [29],40
same,"Plant response rating, Goosegrass",[6]; [30],80
same,"Plant response rating, Blackgrass",[7]; [29],40
same,"Plant response rating, Blackgrass",[7]; [30],50
same,"Plant response rating, Ryegrass, Italian",[8]; [29],70
same,"Plant response rating, Ryegrass, Italian",[8]; [30],90
same,"Plant response rating, Ducksalad",[9],65
same,"Plant response rating, Corn",[10]; [31],20
same,"Plant response rating, Corn",[10]; [32],50
same,"Plant response rating, Barnyardgrass",[11],25
same,"Plant response rating, Corn",[12]; [29],30
same,"Plant response rating, Corn",[12]; [30],50
same,"Plant response rating, Oat, Wild",[13]; [31],30
same,"Plant response rating, Oat, Wild",[13]; [32],90
same,"Plant response rating, Oat, Wild",[14]; [29],30
same,"Plant response rating, Oat, Wild",[14]; [30],70
same,"Plant response rating, Kochia",[15]; [29],60
same,"Plant response rating, Kochia",[15]; [30],70
same,"Plant response rating, Horseweed",[16]; [29],0
same,"Plant response rating, Horseweed",[16]; [30],20
same,"Plant response rating, Wheat",[17]; [29],30
same,"Plant response rating, Wheat",[17]; [30],80
same,"Plant response rating, Rice",[18],15
same,"Plant response rating, Foxtail, Giant",[19]; [31],100
same,"Plant response rating, Foxtail, Giant",[19]; [32],100
same,"Plant response rating, Foxtail, Giant",[20]; [29],90
same,"Plant response rating, Foxtail, Giant",[20]; [30],90
same,"Plant response rating, Pigweed, Palmer",[21]; [31],0
same,"Plant response rating, Pigweed, Palmer",[21]; [32],60
same,"Plant response rating, Ragweed",[22]; [29],0
same,"Plant response rating, Ragweed",[22]; [30],0
same,"Plant response rating, Kochia",[23]; [31],70
same,"Plant response rating, Kochia",[23]; [32],90
same,"Plant response rating, Blackgrass",[24]; [31],30
same,"Plant response rating, Blackgrass",[24]; [32],60
same,"Plant response rating, Ryegrass, Italian",[25]; [31],90
same,"Plant response rating, Ryegrass, Italian",[25]; [32],100
same,"Plant response rating, Goosegrass",[26]; [31],90
same,"Plant response rating, Goosegrass",[26]; [32],100
same,"Plant response rating, Sedge, Umbrella",[27],80
same,"Plant response rating, Ragweed",[28]; [31],0
same,"Plant response rating, Ragweed",[28]; [32],0
Cc1cccc2c1O[C@@H](C)CN2C(=O)c1cccc(-n2cncn2)c1F [Compound 53],"Plant response rating, Galium",[1]; [29],0
same,"Plant response rating, Galium",[1]; [30],0
same,"Plant response rating, Pigweed, Palmer",[2]; [29],0
same,"Plant response rating, Pigweed, Palmer",[2]; [30],30
same,"Plant response rating, Wheat",[3]; [31],0
same,"Plant response rating, Wheat",[3]; [32],10
same,"Plant response rating, Soybean",[4]; [31],0
same,"Plant response rating, Soybean",[4]; [32],0
same,"Plant response rating, Soybean",[5]; [29],20
same,"Plant response rating, Soybean",[5]; [30],50
same,"Plant response rating, Goosegrass",[6]; [29],20
same,"Plant response rating, Goosegrass",[6]; [30],40
same,"Plant response rating, Blackgrass",[7]; [29],0
same,"Plant response rating, Blackgrass",[7]; [30],20
same,"Plant response rating, Ryegrass, Italian",[8]; [29],0
same,"Plant response rating, Ryegrass, Italian",[8]; [30],0
same,"Plant response rating, Ducksalad",[9],0
same,"Plant response rating, Corn",[10]; [31],0
same,"Plant response rating, Corn",[10]; [32],0
same,"Plant response rating, Barnyardgrass",[11],0
same,"Plant response rating, Corn",[12]; [29],0
same,"Plant response rating, Corn",[12]; [30],0
same,"Plant response rating, Oat, Wild",[13]; [31],0
same,"Plant response rating, Oat, Wild",[13]; [32],0
same,"Plant response rating, Oat, Wild",[14]; [29],0
same,"Plant response rating, Oat, Wild",[14]; [30],0
same,"Plant response rating, Kochia",[15]; [29],0
same,"Plant response rating, Kochia",[15]; [30],10
same,"Plant response rating, Horseweed",[16]; [29],0
same,"Plant response rating, Horseweed",[16]; [30],0
same,"Plant response rating, Wheat",[17]; [29],0
same,"Plant response rating, Wheat",[17]; [30],0
same,"Plant response rating, Rice",[18],0
same,"Plant response rating, Foxtail, Giant",[19]; [31],0
same,"Plant response rating, Foxtail, Giant",[19]; [32],0
same,"Plant response rating, Foxtail, Giant",[20]; [29],0
same,"Plant response rating, Foxtail, Giant",[20]; [30],10
same,"Plant response rating, Pigweed, Palmer",[21]; [31],0
same,"Plant response rating, Pigweed, Palmer",[21]; [32],0
same,"Plant response rating, Ragweed",[22]; [29],0
same,"Plant response rating, Ragweed",[22]; [30],0
same,"Plant response rating, Kochia",[23]; [31],0
same,"Plant response rating, Kochia",[23]; [32],20
same,"Plant response rating, Blackgrass",[24]; [31],0
same,"Plant response rating, Blackgrass",[24]; [32],0
same,"Plant response rating, Ryegrass, Italian",[25]; [31],30
same,"Plant response rating, Ryegrass, Italian",[25]; [32],70
same,"Plant response rating, Goosegrass",[26]; [31],0
same,"Plant response rating, Goosegrass",[26]; [32],40
same,"Plant response rating, Sedge, Umbrella",[27],0
same,"Plant response rating, Ragweed",[28]; [31],0
same,"Plant response rating, Ragweed",[28]; [32],0
Cc1cccc2c1O[C@@H](C)CN2C(=O)c1cc(-n2cncn2)ccc1Cl [Compound 60],"Plant response rating, Galium",[1]; [29],90
same,"Plant response rating, Galium",[1]; [30],100
same,"Plant response rating, Pigweed, Palmer",[2]; [29],20
same,"Plant response rating, Pigweed, Palmer",[2]; [30],50
same,"Plant response rating, Wheat",[3]; [31],0
same,"Plant response rating, Wheat",[3]; [32],30
same,"Plant response rating, Soybean",[4]; [31],40
same,"Plant response rating, Soybean",[4]; [32],100
same,"Plant response rating, Soybean",[5]; [29],100
same,"Plant response rating, Soybean",[5]; [30],100
same,"Plant response rating, Goosegrass",[6]; [29],10
same,"Plant response rating, Goosegrass",[6]; [30],80
same,"Plant response rating, Blackgrass",[7]; [29],10
same,"Plant response rating, Blackgrass",[7]; [30],60
same,"Plant response rating, Ryegrass, Italian",[8]; [29],0
same,"Plant response rating, Ryegrass, Italian",[8]; [30],60
same,"Plant response rating, Ducksalad",[9],45
same,"Plant response rating, Corn",[10]; [31],20
same,"Plant response rating, Corn",[10]; [32],30
same,"Plant response rating, Barnyardgrass",[11],15
same,"Plant response rating, Corn",[12]; [29],30
same,"Plant response rating, Corn",[12]; [30],80
same,"Plant response rating, Oat, Wild",[13]; [31],0
same,"Plant response rating, Oat, Wild",[13]; [32],0
same,"Plant response rating, Oat, Wild",[14]; [29],50
same,"Plant response rating, Oat, Wild",[14]; [30],90
same,"Plant response rating, Kochia",[15]; [29],20
same,"Plant response rating, Kochia",[15]; [30],70
same,"Plant response rating, Horseweed",[16]; [29],0
same,"Plant response rating, Horseweed",[16]; [30],0
same,"Plant response rating, Wheat",[17]; [29],30
same,"Plant response rating, Wheat",[17]; [30],60
same,"Plant response rating, Rice",[18],0
same,"Plant response rating, Foxtail, Giant",[19]; [31],100
same,"Plant response rating, Foxtail, Giant",[19]; [32],100
same,"Plant response rating, Foxtail, Giant",[20]; [29],90
same,"Plant response rating, Foxtail, Giant",[20]; [30],90
same,"Plant response rating, Pigweed, Palmer",[21]; [31],30
same,"Plant response rating, Pigweed, Palmer",[21]; [32],90
same,"Plant response rating, Ragweed",[22]; [29],20
same,"Plant response rating, Ragweed",[22]; [30],50
same,"Plant response rating, Kochia",[23]; [31],0
same,"Plant response rating, Kochia",[23]; [32],30
same,"Plant response rating, Blackgrass",[24]; [31],20
same,"Plant response rating, Blackgrass",[24]; [32],70
same,"Plant response rating, Ryegrass, Italian",[25]; [31],100
same,"Plant response rating, Ryegrass, Italian",[25]; [32],100
same,"Plant response rating, Goosegrass",[26]; [31],100
same,"Plant response rating, Goosegrass",[26]; [32],100
same,"Plant response rating, Sedge, Umbrella",[27],35
same,"Plant response rating, Ragweed",[28]; [31],0
same,"Plant response rating, Ragweed",[28]; [32],20
